Measurements published in paper PMC5375023 (Neurochemistry international, 2017).
Read-outs that look alike come from different tables or passages of the source.

Key:
[1] = tested on: BDNF mRNA in CCF-STTG1 cells; experiment: qPCR of BDNF steady-state mRNA; assay type: cell-based, human; settings: 3 hr
U87MG cells = experiment: BDNF secretion by in situ ELISA, U87MG; settings: 72 hrs treatment
CCF-STTG1 cells = experiment: BDNF secretion by in situ ELISA, CCF-STTG1; settings: for BDNF secretion from CCF-STTG1 cells, compound alone: 72 hrs treatment
BV-2 cells = experiment: BDNF secretion by in situ ELISA, BV-2; assay type: cell-based, murine; settings: 10 μM
human S1R [2] = target: T1, human S1R (Homo sapiens, UniProt Q99720); experiment: Competition binding with [3H]-
T1 sequence (Q99720 whole entry): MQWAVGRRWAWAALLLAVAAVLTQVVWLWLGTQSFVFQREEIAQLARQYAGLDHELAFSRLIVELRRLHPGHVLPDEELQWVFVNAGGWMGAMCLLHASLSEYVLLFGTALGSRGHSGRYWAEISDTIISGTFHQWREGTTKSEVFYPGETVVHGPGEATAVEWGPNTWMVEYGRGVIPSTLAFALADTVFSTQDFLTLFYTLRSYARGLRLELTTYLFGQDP

human S2R = human S2R (Homo sapiens, UniProt Q5BJF2); experiment: Competition binding with [3H]DTG at S2R in untransfected MCF-7 cells; settings: for IC50: read-out: IC50 at S2R; for IC50 / Ki: MCF-7, ± SEM; for Ki: read-out: Ki at S2R
human S2R, sequence (Q5BJF2 whole entry): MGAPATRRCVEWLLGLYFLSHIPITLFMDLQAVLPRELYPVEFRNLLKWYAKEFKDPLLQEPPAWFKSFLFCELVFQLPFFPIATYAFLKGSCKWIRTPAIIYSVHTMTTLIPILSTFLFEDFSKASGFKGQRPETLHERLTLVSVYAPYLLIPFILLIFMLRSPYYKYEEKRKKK

EP2R = settings: 10 μM; ref af Forselles et al., 2011; cited from earlier work
human S1R [3] = target: T1, human S1R; settings: ref Lee et al., 2008, cited from earlier work
ischemic stroke = settings: acute low dose 0.05 mg/kg, s.c., rats; ref Schetz et al., 2007; cited from earlier work
[4] = 15 nM, Fractional Occupancy = [ligand]/([ligand]+Ki)

OC(CCCN1CCC(O)(c2ccc(Cl)cc2)CC1)c1ccc(F)cc1 (racemic) [reduced haloperidol, (±)-4-(4-Chlorophenyl)-α-(4-fluorophenyl)-4-hydroxy-1-piperidinebutanol]
effect on BDNF mRNA levels ([1]; 10 μM): no effect on BDNF mRNA levels | BDNF secretion from U87MG cells, compound alone (U87MG cells): facilitated BDNF secretion | BDNF secretion from CCF-STTG1 cells, compound alone (CCF-STTG1 cells): facilitated BDNF secretion

c1ccc(CCCCN2CCC(c3ccccc3)CC2)cc1 [4-PPBP]
BDNF secretion from BV-2 cells, compound alone (BV-2 cells): failed to significantly stimulate the secretion of detectable levels of BDNF | BDNF signal above DMSO vehicle (BV-2 cells; BV-2 cells, P = 0.4): 1.1 ± 0.06 fold | effect on BDNF mRNA levels ([1]; 10 μM): no effect on BDNF mRNA levels | BDNF secretion from CCF-STTG1 cells, compound alone (CCF-STTG1 cells): facilitated BDNF secretion

CN1CCN(CCc2ccc(Cl)c(Cl)c2)CC1 [BD1063]
expected S1R occupancy (human S1R [2]; 2 nM): 27% | calculated S1R occupancy (human S1R [2]; [4]): 74% | Ki(S2R)/Ki(S1R) selectivity (human S1R [2]; S1R over S2R): 37 fold | IC50 (human S1R [2]; read-out: IC50 at S1R, [3H]-(+)-pentazocine, MCF-7-S1R, ± SEM): 6.5 ± 0.87 nM | Ki (human S1R [2]; read-out: Ki at S1R, [3H]-(+)-pentazocine, MCF-7-S1R, ± SEM): 5.3 ± 0.71 nM | calculated S2R occupancy (human S2R; [4]): 7% | IC50 (human S2R; [3H]-DTG): 208 ± 30 nM | Ki (human S2R; [3H]-DTG): 194 ± 28 nM | BDNF secretion from CCF-STTG1 cells, compound alone (CCF-STTG1 cells): no effect on its own | effect on PGE2-stimulated BDNF response mediated by EP2R (CCF-STTG1 cells; S1R-selective dose of BD1063): does not modify the PGE2 stimulated response | effect on BDNF secretion produced by S1R agonists 4-PPBP and (+)-SKF10047 (CCF-STTG1 cells; antagonist 15 nM): significantly reduced BDNF secretion | effect on BDNF secretion produced by haloperidol metabolites I and II (CCF-STTG1 cells; antagonist BD1063 co-applied): significantly diminished BDNF secretion

C=C[C@@]1(C)CC(=O)[C@]2(O)[C@@]3(C)[C@@H](O)CCC(C)(C)[C@@H]3[C@H](O)[C@H](OC(C)=O)[C@@]2(C)O1 [Forskolin]
increase in BDNF mRNA levels ([1]; 100 μM forskolin + 100 μM IBMX, normalized to vehicle): > 3 fold

CC(C)Cn1c(=O)n(C)c(=O)c2[nH]cnc21 [IBMX]
effect on BDNF mRNA levels ([1]; 100 μM): no effect on BDNF mRNA levels

CCCN(CCC)CCc1ccc(OC)c(OCCc2ccccc2)c1 [NE100]
IC50 (human S2R; [3H]-DTG): 46 ± 6.4 nM | Ki (human S2R; [3H]-DTG): 43 ± 6 nM

COc1ccc2cc(OCC3(C(=O)O)CN(C(=O)c4ccc(F)cc4)C3)ccc2c1 [PF-04418948]
EP2 receptor occupancy (EP2R): 99.9% | BDNF secretion from CCF-STTG1 cells, compound alone (CCF-STTG1 cells): no effect by itself | effect on PGE2-stimulated BDNF secretion (CCF-STTG1 cells; antagonist 10 μM vs PGE2): blocked the stimulatory effect of PGE2

CCCCC[C@H](O)/C=C/[C@H]1[C@H](O)CC(=O)[C@@H]1C/C=C\CCCC(=O)O [PGE2, Prostaglandin E2]
displacement of specifically bound radioligand from S1R (human S1R [2]; 10 μM, [3H]-(+)-pentazocine): unable to displace | displacement of specifically bound radioligand from S2R (human S2R; 10 μM, [3H]-DTG): unable to displace | secreted BDNF, maximal stimulation (CCF-STTG1 cells; 10 μM, ± SEM, n = 6 experiments, baseline 75.4 ± 6.9): 128.6 ± 12.8 pg/mL | BDNF secretion from CCF-STTG1 cells, compound alone (CCF-STTG1 cells): secreted BDNF in a concentration-dependent manner

CN1CCN(C2=Nc3cc(Cl)ccc3Nc3ccccc32)CC1 [clozapine]
affinity for the S1R, in words (human S1R [3]): essentially no affinity

OC1(c2ccc(Cl)cc2)CCNCC1 [haloperidol metabolite I, 4-(4-Chlorophenyl)-4-hydroxypiperidine]
effect on BDNF mRNA levels ([1]; 100 μM): no effect on BDNF mRNA levels | Ki (human S1R [3]; read-out: affinity (Ki) for the S1R): 128 nM | fold lower affinity for the S1R than haloperidol and reduced haloperidol (human S1R [3]): > 75 fold | BDNF secretion from U87MG cells, compound alone (U87MG cells): facilitated BDNF secretion | BDNF secretion from CCF-STTG1 cells, compound alone (CCF-STTG1 cells): facilitated BDNF secretion

O=C(O)CCC(=O)c1ccc(F)cc1 [haloperidol metabolite III, 3-(4-Fluorobenzoyl)propionic acid]
affinity for the S1R, in words (human S1R [3]): essentially no detectable affinity

O=C(CCCN1CCC(O)(c2ccc(Cl)cc2)CC1)c1ccc(F)cc1 [haloperidol, Haloperidol]
protection against ischemic stroke (ischemic stroke): protected rats against an ischemic stroke | BDNF secretion from U87MG cells, compound alone (U87MG cells): but not haloperidol, facilitated BDNF secretion | BDNF secretion from CCF-STTG1 cells, compound alone (CCF-STTG1 cells): but not haloperidol, facilitated BDNF secretion

(+)-SKF10047
BDNF secretion from CCF-STTG1 cells, compound alone (CCF-STTG1 cells): facilitated BDNF secretion
